Patent publication US9029574B2, “Bicyclic compound and use thereof for medical purposes” (Ono Pharmaceutical Co., Ltd., priority 2011, dated 2015)

What was measured:
Type in all cases: in vivo
[1] = test system: male monkey (crab-eating monkey); assay: Intraocular pressure lowering action in monkey under consciousness; conditions: ocular instillation 30 μL, 10 μg/mL; for Maximum intraocular pressure lowering rate (%): maximum up to 24 hours
Description: (2-3) Intraocular Pressure Lowering Action in Monkey Under Consciousness
To a left eye of a male monkey (crab-eating monkey) under consciousness, 30 μL of a solution obtained by adjusting a test substance with using the same base as that described above was ocular instillation-administered and, to a right eye, 30 μL of a solution of only a base as a control was ocular instillation-administered, respectively. An intraocular pressure after administration was measured with time from administration initiation until 24 hours. In case of measurement of an intraocular pressure, a crab-eating monkey was fixed on a monkey chair, and the monkey was anesthetized by ocular instillation-administering an ocular surface anesthetic (Benoxil eye drops 0.4% Santen Pharmaceutical Co., Ltd.). After mounting of a blepharostat (Handaya Co., Ltd.), an intraocular pressure of both eyes was measured (5 to 8 examples per group) with using a pneumatic applanation flat tonometer (Model 30 Classic, REICHERT). A difference in an intraocular pressure value between control eyes and eyes to which a test substance had been administered, was calculated as an intraocular pressure lowering rate with using the following equation, and sustainability of intraocular eye lowering action was assessed using a maximum intraocular pressure lowering rate during measurement and an intraocular pressure lowering rate after 24 hours. As the test substance, the Comparative Compound B, and the compounds of Example 16 (3), Example 16 (25) and Example 16 (35) were used, and an administration dose was 10 μg/mL in all cases.

[2] = test system: male rabbit (NewZealandWhite); assay: Aqueous humor protein concentration in rabbit after ocular instillation; conditions: ocular instillation 30 μL of 0.1% (w/v), aqueous humor collected 0 to 8 hours
Description: (2-2) Assessment of Ocular Stimulating Property and Aqueous Humor Protein Concentration
To one eye of a male rabbit (NewZealandWhite, 2.0 to 3.0 kg), 30 μL of the compound of Example 16 (35), the compound of Example 16 (3) and the compound of Example 16 (25) which had been adjusted to 0.1% (w/v) with a base (containing citrate buffer pH 6.5, 0.5% polysorbate 80, 1% propylene glycol, 0.01% benzalkonium chloride), was ocular-instilled respectively. Thereafter, an aqueous humor in anterior chamber after 0, 1, 2, 4, 6 and 8 hours from ocular instillation was collected, and a protein concentration in the humor was measured. As a comparative compound, the aforementioned methyl ester of the compound of Example 12 described in Patent Literature 2 (i.e. compound of Example 10 described in Patent Literature 2) (hereinafter, abbreviated as Comparative Compound B in some cases) was used.
Regarding any test compound, a dose until a dissolution limit (150 to 1000 μg/mL) was administered and action of each active body was assessed.

[3] = test system: male dog (TOYO Beagle); assay: Intraocular pressure lowering action in dog after ocular instillation; conditions: for Maximum of intraocular pressure lowering rate (%): ocular instillation 30 μL, maximum among 2, 4, 6, 8 and 24 hours; for intraocular pressure lowering action as compared with latanoprost: ocular instillation, in words
Description: As can be easily understood by a person skilled in the art, in an in vivo test, since regarding all test compounds, carboxylic acid which is an active body has bad corneal permeability, pharmacological action of the active body was assessed by ocular instillation administration of a compound which had been converted into an ester such as a methyl ester, an ethyl ester, an isopropyl ester etc. In addition, in a group of the compound of the present inventions, by ocular instillation administration of the ester body in an experimental animal (rabbit, dog etc.) by which pharmacological action is confirmed below and, thereafter, measurement of a drug concentration of carboxylic acid in an aqueous humor, it was confirmed that the ester is rapidly converted into corresponding carboxylic acid.
(2-1) Intraocular Pressure Lowering Action
To one eye of a male dog (TOYO Beagle) which had been sufficiently acclimated in advance, 30 μL of each test compound (the compound of Example 16 (35), the compound of Example 16 (3) and the compound of Example 16 (25)) which had been adjusted with a base (containing citrate buffer pH 6.5, 0.5% polysorbate 80, 1% propylene glycol, […]), was ocular-instilled respectively. The other eye was not treated. As a positive control compound, latanoprost which is the known compound was used.
Thereafter, an ocular surface anesthetic (Benoxil eye drops 0.4%, Santen Pharmaceutical Co., Ltd.) was subjected to ocular instillation to locally anesthetize eyes, and an intraocular pressure of each test compound before ocular instillation and after 2, 4, 6, 8, and 24 hours from ocular instillation was measured. An intraocular pressure was measured using a pneumatic applanation flat tonometer (Model 30 Classic, REICHERT). An intraocular pressure lowering rate (%) was calculated by the following equation.

## CC(C)OC(=O)CCC[C@H]1CC[C@@H]2[C@@H](/C=C/[C@@H](O)COc3cccc(Cl)c3)[C@H](O)C[C@@H]2OC1 [Example 16 (3), 2-Propanyl 4-{(3S,5aR,6R,7R,8aS)-6-[(1E,3R)-4-(3-chlorophenoxy)-3-hydroxy-1-buten-1-yl]-7-hydroxyoctahydro-2H-cyclopenta[b]oxepin-3-yl}butanoate]
[1]
  Intraocular pressure lowering rate (%) after 24 hours: 15.1 ± 2.0%
  Maximum intraocular pressure lowering rate (%): 28.8 ± 2.2%
[2]
  action of raising a protein concentration in an aqueous humor: no action of raising a protein concentration in an aqueous humor
[3]; administration dose 10 μg/mL
  Maximum of intraocular pressure lowering rate (%): 35.7%
[3]
  intraocular pressure lowering action as compared with latanoprost: stronger intraocular pressure lowering action

## CC(C)OC(=O)CCC[C@H]1CC[C@@H]2[C@@H](/C=C/[C@@H](O)COc3cc(F)ccc3F)[C@H](O)C[C@@H]2OC1 [Example 16 (25), 2-Propanyl 4-{(3S,5aR,6R,7R,8aS)-6-[(1E,3R)-4-(2,5-difluorophenoxy)-3-hydroxy-1-buten-1-yl]-7-hydroxyoctahydro-2H-cyclopenta[b]oxepin-3-yl}butanoate]
[1]
  Intraocular pressure lowering rate (%) after 24 hours: 17.5 ± 2.1%
  Maximum intraocular pressure lowering rate (%): 26.5 ± 1.7%
[2]
  action of raising a protein concentration in an aqueous humor: no action of raising a protein concentration in an aqueous humor
[3]; administration dose 10 μg/mL
  Maximum of intraocular pressure lowering rate (%): 40.6%
[3]
  intraocular pressure lowering action as compared with latanoprost: stronger intraocular pressure lowering action

## CCOC(=O)CCC[C@H]1CC[C@@H]2[C@@H](/C=C/[C@@H](O)COc3ccccc3)[C@H](O)C[C@@H]2OC1 [Example 16 (35), Ethyl 4-{(3S,5aR,6R,7R,8aS)-7-hydroxy-6-[(1E,3R)-3-hydroxy-4-phenoxy-1-buten-1-yl]octahydro-2H-cyclopenta[b]oxepin-3-yl}butanoate]
[1]
  Intraocular pressure lowering rate (%) after 24 hours: 14.9 ± 4.7%
  Maximum intraocular pressure lowering rate (%): 19.2 ± 2.6%
[2]
  action of raising a protein concentration in an aqueous humor: no action of raising a protein concentration in an aqueous humor
[3]; administration dose 10 μg/mL
  Maximum of intraocular pressure lowering rate (%): 31%
[3]
  intraocular pressure lowering action as compared with latanoprost: stronger intraocular pressure lowering action

## CC(C)OC(=O)CCC/C=C\C[C@@H]1[C@@H](CC[C@@H](O)CCc2ccccc2)[C@H](O)C[C@@H]1O [Latanoprost, latanoprost, reference compound]
[3]; administration dose 50 μg/mL
  Maximum of intraocular pressure lowering rate (%): 25.4%
